Key:
[1] = system: splenic cytotoxic T-cells; experiment: redirected lysis assay of spleen cells co-cultured with tumor ascites inhibitory cells; format: cell-based, mouse; conditions: antalarmin 0.5 to 1 micromolar; 3 days co-culture in vitro; stimulation with anti-CD3/CD28 monoclonal antibodies
Protocol: To assess the IL-2 responsiveness of T-cells within murine ascites, whole populations of cells were cultured overnight for up to 3 days with IL-2 and then tested for lytic activity using the redirected lysis assay. The assay was similar to the assay described for human cells but an anti-mouse CD3 monoclonal antibody (2C11) was used instead of OKT3. While control splenic cells from non-tumor bearing mice contained cytotoxic T-cell lytic function, the ascites samples had no IL-2 responsive T-cell lytic activity.
Experiments were then performed with antalarmin, a CRH receptor antagonist, to determine if manipulation of CRH activity was involved in the regulation of lytic activity in ovarian carcinoma cells. Spleen cells from normal non-tumor bearing mice were co-cultured in vitro for 3 days with tumor ascites inhibitory cells from the mouse model system. […]
Freshly isolated reproductive tract cells were tested for lytic function by an anti-CD3 mAb (OKT3)-dependent redirected lysis assay (White et al., J. Immunology 158:3017, 1997). […] The chromium released into the supernatant fraction was measured to obtain the percent specific cytotoxicity (% specific lysis), i.e. percent of labeled target cells killed by CD3+ effector cells, using duplicate wells and a titration of 3 effector to target ratios. […]

[2] = system: stimulated splenic T-cells (CD3+ and CD8+); experiment: FACS analysis of splenic CD3+ and CD8+ cells co-cultured with tumor ascites inhibitory cells; format: cell-based, mouse; conditions: antalarmin 0.5 to 1 micromolar; co-culture with tumor ascites inhibitory cells
spleen cells = experiment: splenic cell yields after challenge with ID8 murine ovarian carcinoma cells; format: in vivo, C57BL6 mice
Text: Normal C57BL6 mice were challenged with ID8 murine ovarian carcinoma cells (intraperitoneally) in the presence of control vehicle (diluent), antalarmin, T-cell stimulation with 2C11 antibody, or antalarmin plus T-cell stimulation. Ten days after challenge, spleen cells were harvested and T-cells were restimulated with either antibody to the T-cell receptor and co-receptor or ID8 tumor cells in the presence of antalarmin, antibody stimulation, or a combination of antalarmin plus antibodies to T-cell receptor and co-receptor. Six days later, cells were harvested and tested for splenic cell yields. […] Treatment with tumor cells plus antalarmin plus antibody stimulation in the in vivo priming phase, followed by restimulation with irradiated tumor cells in the presence of antalarmin, provided conditions also favorable for preventing spleen cell loss induced by tumor cells. Thus, antalarmin was an important factor in preserving immune cells in vivo in the initial phases of ovarian cancer disease.

[3] = system: implantation sites and live embryos; conditions: rodents; antalarmin administration; cited from earlier work
Fas ligand = conditions: resulting in decreased apoptosis of fetal cell-recognizing T-cells; cited from earlier work

With `CCCCN(CC)c1nc(C)nc2c1c(C)c(C)n2-c1c(C)cc(C)cc1C` [antalarmin] as the compound, how does the “cytotoxic T-cell lytic function down-regulated by tumor ascites inhibitory cells” value [1] read?
The value was “prevented the down-regulation”.

And the “loss of CD3-stimulated T-cells mediated by murine ascites inhibitory cells” value [2]?
The value was “prevent the loss of CD3− stimulated T-cells”.

And the “loss of spleen cells at early stages of ovarian carcinoma disease” value (spleen cells; ID8 cells intraperitoneally, spleen cells harvested ten days after challenge, restimulated, yields tested six days later)?
Its value is “prevented the loss of spleen cells”.

And the splenic cell yields (spleen cells; antalarmin added to tumor cells for in vivo priming phase, then non-specific stimulation or no stimulation in restimulation phase)?
The splenic cell yields was “best yields of spleen cells”.

And the “number of implantation sites and live embryos” value [3]?
Its value is “decreased the number of implantation sites an live embryos”.

What about the “fetal cell Fas ligand expression” value (Fas ligand) of the same compound?
The value was “decrease fetal cell Fas ligand expression”.

Reference: patent US20060058217A1, “Compositions and methods for treatment of ovarian cancer” (priority 2003, published 2006)
